From patent publication US20080214678A1, “Biopesticide Comprising a Composition Rich in Diallyl Polysulphides” (priority 2003, published 2008)
≈ marks a conversion by molar mass, not a printed value. Where two headings read alike, the source gives them in different places.

Assays:
[1] = system: clothes moth Tineola bisselliella; assay: whole plant or invertebrate; assay type: in vivo; settings: for LC50: Tineola bisselliella; for insecticidal activity: closed space, insects tested
Experimental: (§1) The pesticidal activity of the extracts is measured in a closed space on adult insects. Each value represents the mean of three experiments, each involving 30 insects representative of three different insect orders: • lepidoptera (the clothes moth Tineola bisselliella), • isoptera (the Saintonge termite Reticulitermes santonensis), and • coleoptera (the bean weevil Callosobruchus maculatus)

[2] = system: bean weevil Callosobruchus maculatus; assay: Pesticidal activity in a closed space on adult weevil (LC50); assay type: in vivo
Experimental: as §1

[3] = ambient temperature storage; cited from earlier work
[4] = adult insects, closed space, 24 h of treatment, NQ = non-quantifiable due to the absence of activity, read-out: Weevil LC50

Row | SMILES | LC50 ([1]; 24 h, read-out: Mite LC50) [µg/mL] | LC50 ([1]; 24 h, read-out: Mite LC50 observed) [µg/mL] | LC50 ([1]; read-out: Mite LC50 calculated) [µg/mL] | insecticidal activity [1] | LC50 ([2]; adult insects, closed space, 24 h, NQ = no activity, read-out: Weevil LC50 observed) [µg/mL] | LC50 [2, 4] [µg/mL] | LC50 ([2]; theoretical, from total DASn content compared with DAS2 activity, read-out: Weevil LC50 calculated) [µg/mL] | stability at ambient temperature [3]
1 | C=CCSSCC=C [DAS2, diallyl disulfide] | 0.02 (≈ 0.137 µM) | 0.02 (≈ 0.137 µM) | 0.02 (≈ 0.137 µM) | show an insecticidal activity | 0.5 (≈ 3.42 µM) | 0.5 (≈ 3.42 µM) | 0.5 (≈ 3.42 µM) | –
2 | C=CCS[S+]([O-])CC=C (stereo not shown) [TiA2, allicin] | – | – | – | show an insecticidal activity | – | 0.16 (≈ 0.986 µM) | – | low stability
